According to patent publication US20020061869A1, “Free insulin testosterone test” (priority 1998, published 2002):

Legend:
[1] = tested on: subject (tissue glucose stores); test: Example 5: intramuscular testosterone enanthate, Hemoglobin A1C; assay type: in vivo, human; settings: 9.9 in May
Protocol: Testosterone enanthate 300 mg was given to a subject intramuscularly twice weekly for four weeks, then continued with therapy of 300 mg every two weeks.

[2] = tested on: insulin dependent diabetic patient; test: Example 2: intramuscular depo-testosterone enanthate in an insulin dependent diabetic person; assay type: in vivo, human; settings: 150 mg intramuscularly three times weekly
Protocol: A. W. was a person who has been an insulin dependent diabetic for fifteen years. […] They were scheduled for amputation. They used 24 units of Humulin insulin in the morning and 16 units at night. Their fasting blood glucose was 334. Treated with 150 mg of depo-testosterone enanthate intramuscularly, three times weekly, they became euglycemic on less than 12 units daily; see FIG. 1. However, due to the infected heel ulcer, amputation proceeded.

[3] = tested on: diabetic patient on oral hypoglycemic agents; test: Example 3: intramuscular depo-testosterone in a person on oral hypoglycemic agents; assay type: in vivo, human; settings: 250 mg intramuscularly three times weekly for four weeks
Protocol: J. G. was a person on oral hypoglycemic agents for ten years. Present dosage was 20 mg/day, Micronase 7 (Upjohn). They presented with ulcerations in four areas of their left foot, no dorsal pedis pulsation, and was scheduled for amputation but refused. Fasting glucose was 244.

[4] = tested on: men with cluster headaches; test: Testosterone supplementation in men with cluster headaches and low Testosterone Ratio Test; assay type: in vivo, human; settings: two men; supplementation to therapeutic levels at the normal male maximum
[5] = tested on: insulin dependent diabetes mellitus patient; test: Example 1: intramuscular aqueous testosterone in an insulin dependent diabetic person with gangrene; assay type: in vivo, human
Protocol: C. W. was a person with a fifteen-year history of insulin dependent diabetes mellitus. They were hospitalized with gangrene of the middle finger of their right hand and was scheduled for amputation. They had already had bilateral femoral-popliteal bypass surgery for vascular insufficiency of the lower extremities. Due to anorexia, they were given an intramuscular injection of 200 mg of aqueous testosterone. Their fasting glucose fell from 212 to 159.

[6] = biological target: T1, sex hormone-binding globulin (Homo sapiens, UniProt P04278); settings: readily reversible at 37° C.; cited from earlier work
T1 sequence (P04278 30-402): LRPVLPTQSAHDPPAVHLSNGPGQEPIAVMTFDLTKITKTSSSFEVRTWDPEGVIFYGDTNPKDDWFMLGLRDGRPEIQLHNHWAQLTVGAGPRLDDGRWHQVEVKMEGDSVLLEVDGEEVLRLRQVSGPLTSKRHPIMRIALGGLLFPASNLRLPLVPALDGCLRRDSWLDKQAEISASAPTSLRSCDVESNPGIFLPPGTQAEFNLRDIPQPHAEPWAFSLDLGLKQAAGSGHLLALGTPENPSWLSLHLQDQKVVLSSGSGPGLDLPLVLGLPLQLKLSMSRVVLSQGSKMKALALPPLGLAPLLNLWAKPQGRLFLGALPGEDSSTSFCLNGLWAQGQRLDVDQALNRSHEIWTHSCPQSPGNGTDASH

[7] = tested on: patient with uncontrolled diabetes; test: Example 4: testosterone subcutaneous pellets in a person with uncontrolled diabetes; assay type: in vivo, human; settings: 250 to 900 mg subcutaneous pellets every six weeks over six months, before: 100 units of Humulin
Protocol: G. S. was a person with uncontrolled diabetes for ten years. Seen intermittently for ulceration of the feet, they presented with a serum glucose of 550 while on 100 units of Humulin. They refused admission to the hospital.
Over the course of six months, […] received 250 to 900 mg of […] testosterone subcutaneous pellets every six (6) weeks. […] insulin requirements were reduced 35 units while […] serum glucose remained stable at 140 to 180 mg/dl; see FIG. 3.

[8] = cited from earlier work
rats = tested on: rats; design: dose or concentration left out as unconfirmed; settings: female rats, high dose, cited from earlier work
menopausal women = settings: cited from earlier work

Compound: CCCCCCC(=O)O[C@H]1CC[C@H]2[C@@H]3CCC4=CC(=O)CC[C@]4(C)[C@H]3CC[C@]12C [Testosterone enanthate]
- Hemoglobin A1C ([1]; August, 1998, 300 mg intramuscularly twice weekly for four weeks then every two weeks): 7.2
- Hemoglobin A1C ([1]; October, 1998, 300 mg intramuscularly twice weekly for four weeks then every two weeks): 5.5
- insulin requirement daily ([2]; before: 24 units morning and 16 units at night): less than 12 units
- glycemic status ([2]; person, fasting blood glucose before 334): euglycemic
- use of oral hypoglycemic agents ([3]; before: Micronase 20 mg/day): discontinuing their oral agents
- glycemic status ([3]; person, fasting glucose before 244): euglycemic

Compound: C[C@]12CC[C@H]3[C@@H](CCC4=CC(=O)CC[C@@]43C)[C@@H]1CC[C@@H]2O [testosterone]
- cluster headaches/migraines [4]: complete absence of cluster headaches/migraines for two years
- healing of gangrenous finger ([5]; amputation made unnecessary): healed completely in two months
- fasting glucose ([5]; person, after intramuscular injection of 200 mg, fell from 212): 159
- serum glucose outcome ([5]; repeated dosing every other day for one week): normalization of their serum glucose
- insulin requirement (Humulin daily) ([5]; repeated dosing every other day for one week, decrease from 44 units): 24 units
- binding affinity K [6]: approximately 10^9 M^−1
- insulin requirements reduced [7]: 35 units

Compound: Cc1c(C)c2c(c(C)c1O)CCC(C)(COc1ccc(CC3SC(=O)NC3=O)cc1)O2 (stereo not drawn) [troglitazone]
- side effects ([8]; as reported to date): abnormal liver function tests, jaundice, drop in white blood cell count and drop in hemoglobin which may persist for two years
- lowering of effective blood level of co-administered drugs ([8]; oral contraceptives, terfenadine, and choleslyramine): up to 30%
- sarcomatous tumors (rats; daily for 104 weeks, dose associated with excessive mortality): statistically significant increase in sarcomatous tumors
- exposure relative to estimated human exposure of parent compound (rats): 47 fold

Compound: estrogen
- reduction of cardiovascular disease mortality (menopausal women): fifty percent
